From publication PMC8628145 (Cancer chemotherapy and pharmacology, 2021)
Where “and” joins values, the source holds several entries; their conditions need not be identical. Identical values can stand only once.

Columns and labels:
bFGF = experiment: Plasma bFGF level; format: in vivo, human
tubulin = experiment: Tubulin polymerization assay; format: biochemical; conditions: supplemental Fig. 3B
PlGF = experiment: Plasma placental growth factor level; format: in vivo, human
HGF = experiment: Plasma HGF level; format: in vivo, human
[1] = Plasma pharmacokinetics of tivantinib and metabolites; conditions: for Cl/F: first dose, based on AUC0–inf; for half-life: t½
VEGF-A = experiment: Plasma VEGF-A level; format: in vivo, human
p-Tyr1234/5-Met = p-Tyr1234/5-Met (Homo sapiens, UniProt P08581); experiment: Skin biopsy immunohistochemistry, p-MET expression; format: in vivo; conditions: skin biopsies following tivantinib (with bevacizumab), C1D15
Chain of p-Tyr1234/5-Met (P08581 25-1390): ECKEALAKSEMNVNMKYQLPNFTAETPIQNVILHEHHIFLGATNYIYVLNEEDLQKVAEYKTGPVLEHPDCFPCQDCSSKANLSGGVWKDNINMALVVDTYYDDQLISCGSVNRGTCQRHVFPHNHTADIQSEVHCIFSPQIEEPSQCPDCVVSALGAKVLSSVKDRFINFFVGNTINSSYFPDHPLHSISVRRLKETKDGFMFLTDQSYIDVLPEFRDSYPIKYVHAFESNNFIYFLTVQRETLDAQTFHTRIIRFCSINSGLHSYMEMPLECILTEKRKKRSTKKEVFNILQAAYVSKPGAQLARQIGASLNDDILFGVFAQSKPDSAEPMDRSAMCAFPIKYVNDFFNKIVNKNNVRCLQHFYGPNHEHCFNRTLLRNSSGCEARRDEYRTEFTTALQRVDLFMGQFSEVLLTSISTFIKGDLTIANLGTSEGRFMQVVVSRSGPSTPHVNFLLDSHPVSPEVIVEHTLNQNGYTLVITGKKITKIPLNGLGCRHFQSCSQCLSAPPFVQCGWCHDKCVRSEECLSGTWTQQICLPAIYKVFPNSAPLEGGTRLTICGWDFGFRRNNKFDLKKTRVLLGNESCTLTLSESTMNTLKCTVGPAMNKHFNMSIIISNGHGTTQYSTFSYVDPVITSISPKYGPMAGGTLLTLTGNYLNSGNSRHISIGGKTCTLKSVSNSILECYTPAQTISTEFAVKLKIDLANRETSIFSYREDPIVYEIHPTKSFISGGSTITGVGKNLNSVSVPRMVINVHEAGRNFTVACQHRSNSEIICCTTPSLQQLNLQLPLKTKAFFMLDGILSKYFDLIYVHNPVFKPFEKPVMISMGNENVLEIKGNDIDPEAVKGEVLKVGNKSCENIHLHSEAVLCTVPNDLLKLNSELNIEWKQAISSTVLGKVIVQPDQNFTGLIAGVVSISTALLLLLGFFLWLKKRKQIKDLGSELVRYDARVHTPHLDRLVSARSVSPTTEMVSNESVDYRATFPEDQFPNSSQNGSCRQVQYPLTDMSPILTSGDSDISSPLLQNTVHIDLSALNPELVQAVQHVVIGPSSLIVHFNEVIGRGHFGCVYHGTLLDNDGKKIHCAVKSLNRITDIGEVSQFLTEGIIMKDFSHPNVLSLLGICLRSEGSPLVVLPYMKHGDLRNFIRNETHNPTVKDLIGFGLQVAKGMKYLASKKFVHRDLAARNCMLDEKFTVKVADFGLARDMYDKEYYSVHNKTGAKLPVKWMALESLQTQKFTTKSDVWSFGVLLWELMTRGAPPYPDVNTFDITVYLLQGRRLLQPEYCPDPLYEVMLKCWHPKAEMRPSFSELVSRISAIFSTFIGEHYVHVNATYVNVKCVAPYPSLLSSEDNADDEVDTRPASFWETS

[2] = human, in vivo, 1 day
β-tubulin = experiment: Total β-tubulin expression in patient PBMCs by immunoblot; format: in vivo, human; conditions: following tivantinib treatment, data not shown
soluble VEGFR1 (sVEGFR1) = experiment: Plasma soluble VEGFR1 level; format: in vivo, human
[3] = test system: human RKO colon cancer cells; experiment: Immunoblot of α- and β-tubulin expression in RKO cells; format: cell-based; conditions: supplemental Fig. 3A
CYP3A4 = conditions: at 50 µM (~ 18 µg/mL); ArQule data on file; cited from earlier work
beta-tubulin = experiment: Skin biopsy immunohistochemistry, tubulin expression; format: in vivo, human; conditions: skin biopsies, oral tivantinib for two weeks (with bevacizumab), C1D15
[4] = day 5, previously reported; cited from earlier work
Met = Met (Homo sapiens, UniProt P08581); experiment: Skin biopsy immunohistochemistry, total MET expression; format: in vivo; conditions: skin biopsies after tivantinib treatment
Chain of Met (P08581 25-1390): as above

[5] = addition of tivantinib to bevacizumab

O=C1NC(=O)[C@@H](c2cn3c4c(cccc24)CCC3)[C@@H]1c1c[nH]c2ccccc12 [tivantinib]
Plasma bFGF concentrations (bFGF; day 15, following 14 days of tivantinib added to bevacizumab, p = 0.047): returned to baseline in most patients | Tubulin polymerization (tubulin): inhibited tubulin polymerization, but not to the same extent as vincristine | Plasma PIGF concentrations (PlGF; [5]): did not alter PIGF concentrations | Plasma HGF concentrations (HGF; addition of tivantinib, in the six patients with increase after bevacizumab): decreased in these same patients | t½ ([1]; Total (N = 11), all dose levels, day 1, plasma, mean (SD)): 5.1 (2.4) h | Cl/F ([1]; Total (N = 11), mean (SD)): 24.9 L/h | AUC(0-t) ([1]; human, plasma, oral, AUC0–8, tivantinib 360/240 mg AM/PM (N = 1), day 1, plasma): 5020 ng·h/mL | Tmax ([1]; human, plasma, oral, Tmax, tivantinib 120/120 mg AM/PM (N = 1), day 1, plasma): 2.5 h | Tmax ([1]; human, plasma, oral, Tmax, tivantinib 360/240 mg AM/PM (N = 1), day 1, plasma): 3 h | half-life ([1]; human, plasma, oral, tivantinib 120/120 mg AM/PM (N = 1), day 1, plasma): 8.2 h | half-life ([1]; human, plasma, oral, tivantinib 360/240 mg AM/PM (N = 1), day 1, plasma): 9.2 h | Tmax ([1]; human, plasma, po, Time of peak plasma concentration, day 1, all 11 patients): ~3 h | AUC0–8 ([1]; tivantinib 120/120 mg AM/PM (N = 1), day 1, plasma): 5570 ng·h/mL | Cl/F ([1]; tivantinib 120/120 mg AM/PM (N = 1)): 9.43 L/h | Cl/F ([1]; tivantinib 360/240 mg AM/PM (N = 1)): 25.8 L/h | Time for accumulation to reach steady-state ([1]; twice daily dosing): ≤ 24 h | Plasma VEGF-A concentrations (VEGF-A; [5]): did not alter VEGF-A concentrations | Patients with reduced p-MET expression in skin (p-Tyr1234/5-Met): 7/11 and 7 of 11 | Dose-normalised exposure on day 1 [2]: 5.82 ng/mL/mg | Tubulin expression in patient PBMCs (β-tubulin): No significant differences | Plasma sVEGFR1 concentrations (soluble VEGFR1 (sVEGFR1); following tivantinib administration): increased in four patients | α- and β-tubulin protein expression [3]: loss of both α- and β-tubulin protein expression | Time-dependent inhibition of CYP3A4 (CYP3A4): exhibits time-dependent inhibition | Patients with substantial reductions in tubulin expression in skin (beta-tubulin): 4/11 and 4 of 11 | Steady-state clearance [4]: 11.8 L/h | Total MET expression in the cytoplasm (skin) (Met): remained unchanged

CC[C@]1(O)C[C@H]2CN(CCc3c([nH]c4ccccc34)[C@@](C(=O)OC)(c3cc4c(cc3OC)N(C=O)[C@H]3[C@@](O)(C(=O)OC)[C@H](OC(C)=O)[C@]5(CC)C=CCN6CC[C@]43[C@@H]65)C2)C1 [vincristine, reference compound]
α- and β-tubulin protein expression [3]: loss of both α- and β-tubulin protein expression

bevacizumab [reference compound]
Patients with increased plasma bFGF (bFGF; after bevacizumab-only lead-in (day 1 vs day − 15), p = 0.008): 8 of 11 | Average increase of plasma PIGF (PlGF; after bevacizumab treatment): 60% | Patients with increased plasma PIGF (PlGF; after bevacizumab treatment, p = 0.005): 10 of 11 | Plasma HGF concentrations (HGF; after bevacizumab treatment): increased in six patients | Plasma VEGF-A (VEGF-A; after bevacizumab treatment): decreased expression of VEGF-A in two patients (#01; #07) and increases in eight patients | Plasma sVEGFR1 concentrations (soluble VEGFR1 (sVEGFR1); after bevacizumab administration, five patients with elevated baseline): decreased
